These are literature values, as cited in patent US20010003742A1, “Antilipemic formulation” (priority 1998, published 2001).

For the data set the following is noted: gelatine itself.

For the substance gelatine, the haemostatic effect entry is recorded as “only displays a haemostatic effect after an addition of thrombin”.
